# Experimental data from ChEMBL document CHEMBL4190243, “Natural alkaloids as P-gp inhibitors for multidrug resistance reversal in cancer” (Eur J Med Chem, 2017).
# Tests used:
# [1] = biological target: T1, Broad substrate specificity ATP-binding cassette transporter ABCG2 (Homo sapiens, UniProt Q9UNQ0); experiment: Inhibition of BCRP (unknown origin)
# T1 sequence (Q9UNQ0 whole entry): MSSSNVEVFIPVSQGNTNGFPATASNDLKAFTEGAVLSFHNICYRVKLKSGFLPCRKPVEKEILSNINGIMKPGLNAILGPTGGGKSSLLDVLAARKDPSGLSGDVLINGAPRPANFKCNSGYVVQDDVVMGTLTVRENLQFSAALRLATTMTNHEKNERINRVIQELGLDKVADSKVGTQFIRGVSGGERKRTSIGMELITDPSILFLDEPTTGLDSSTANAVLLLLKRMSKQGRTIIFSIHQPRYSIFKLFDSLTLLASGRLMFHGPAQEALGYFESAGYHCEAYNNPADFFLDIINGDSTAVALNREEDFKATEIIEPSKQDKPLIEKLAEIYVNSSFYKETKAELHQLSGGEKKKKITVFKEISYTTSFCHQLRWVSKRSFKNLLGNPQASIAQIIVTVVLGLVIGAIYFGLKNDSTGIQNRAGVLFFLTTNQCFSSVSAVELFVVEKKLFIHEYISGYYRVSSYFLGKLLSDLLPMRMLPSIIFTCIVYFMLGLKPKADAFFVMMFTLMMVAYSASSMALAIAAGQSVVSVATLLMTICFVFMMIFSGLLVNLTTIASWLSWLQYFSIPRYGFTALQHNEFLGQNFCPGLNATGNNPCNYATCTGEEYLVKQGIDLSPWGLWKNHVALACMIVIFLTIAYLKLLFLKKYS
# [2] = biological target: T2, ATP-dependent translocase ABCB1 (Homo sapiens, UniProt P08183); experiment: Inhibition of [125I]IAAP labeling to human MDR1 expressed in baculovirus infected insect cell membranes by electrophoresis method
# [3] = biological target: T2, ATP-dependent translocase ABCB1; experiment: Inhibition of human MDR1 ATPase activity expressed in baculovirus infected insect cells preincubated for 30 mins followed by ATP addition measured after 20 mins by colorimetric method
# [4] = biological target: T2, ATP-dependent translocase ABCB1; experiment: Displacement of 8-azido[alpha-32P]ATP from human MDR1 expressed in baculovirus infected insect cell membranes by phosphorimaging method
# [5] = Displacement of [3H]vinblastine from P-gp in human KBV1 cell membrane vesicles; format: cell membranes
# [6] = tested on: KB-V1; experiment: Potentiation of vinblastine-induced antitumor activity against human KBV1 cells xenografted in Ncr nude mouse assessed as growth inhibition at 0.13 mmol/kg by hallow fiber assay; format: functional; conditions: read-out: GI
# [7] = Potentiation of vinblastine-induced antitumor activity against human KB-8-5 cells xenografted in Ncr nude mouse assessed as growth inhibition at 0.13 mmol/kg by hallow fiber assay; format: functional; conditions: read-out: GI
# [8] = tested on: KB-V1; experiment: Potentiation of vinblastine-induced antitumor activity against human KBV1 cells xenografted in Ncr nude mouse assessed as growth inhibition at 0.136 mmol/kg by hallow fiber assay; format: functional; conditions: read-out: GI
# [9] = Inhibition of P-gp ATPase activity in rat AS30-D/COL10 cell plasma membrane vesicles
# [10] = tested on: P388; experiment: Potentiation of doxorubicin-induced antitumor activity against mouse P388/DOX25 cells implanted in mouse assessed as increase in mouse survival at 1.6 mg/kg, ip; format: functional
# [11] = Inhibition of P-gp in rat AS30-D/COL10 cell plasma membrane vesicles assessed as reduction in [3H]VBL transport
# [12] = tested on: KB-V1; experiment: Downregulation of P-gp expression in human MDR KBV1 cells after 24 hrs relative to control; format: functional
# [13] = Cytotoxicity against human KBv200 cells after 72 hrs by MTT assay; format: functional, cell-based; conditions: KBv200, 72 h
# [14] = tested on: Rattus norvegicus; experiment: AUC (0 to 72 hrs) in male Sprague-Dawley rat at 50 mg/kg, po by LC-MS/MS method; format: ADME, organism-based; parameters: dose 50 mg/kg, time < 72 hr, route oral; conditions: in vivo
# [15] = Cmax in male Sprague-Dawley rat at 50 mg/kg, po by LC-MS/MS method; format: ADME, organism-based; parameters: dose 50 mg/kg, route oral; conditions: in vivo
# [16] = Tmax in male Sprague-Dawley rat at 50 mg/kg, po by LC-MS/MS method; format: ADME, organism-based; conditions: in vivo
# [17] = Half life in male Sprague-Dawley rat at 50 mg/kg, po by LC-MS/MS method; format: ADME, organism-based; conditions: in vivo
# [18] = tested on: Rattus norvegicus; experiment: AUC (0 to 72 hrs) in female Sprague-Dawley rat at 50 mg/kg, po by LC-MS/MS method; format: ADME, organism-based; parameters: time < 72 hr, dose 50 mg/kg, route oral; conditions: in vivo
# [19] = Cmax in female Sprague-Dawley rat at 50 mg/kg, po by LC-MS/MS method; format: ADME, organism-based; parameters: dose 50 mg/kg, route oral; conditions: in vivo
# [20] = Tmax in female Sprague-Dawley rat at 50 mg/kg, po by LC-MS/MS method; format: ADME, organism-based; conditions: in vivo
# [21] = Half life in female Sprague-Dawley rat at 50 mg/kg, po by LC-MS/MS method; format: ADME, organism-based; conditions: in vivo
# [22] = tested on: Homo sapiens; experiment: AUC in healthy human at 30 mg/kg, iv by LC-MS/MS method; format: ADME, organism-based; conditions: in vivo
# [23] = Primary phase half life in healthy human at 30 mg/kg, iv by LC-MS/MS method; format: ADME, organism-based; conditions: in vivo, read-out: alphat1/2
# [24] = Terminal phase half life in healthy human at 30 mg/kg, iv by LC-MS/MS method; format: ADME, organism-based; conditions: in vivo, read-out: beta t1/2 (converted)
# [25] = Potentiation of doxorubicin-induced antitumor activity against human KBv200 cells xenografted in Balb/c nude mouse assessed as tumor growth inhibition at 10 mg/kg, ip once daily for 12 days (reference value: 11.6%); format: functional; conditions: 288 h, read-out: TGI
# [26] = Potentiation of epirubicin-induced antitumor activity against human KBv200 cells in xenograft model assessed as tumor growth inhibition at 10 mg/kg, ip (reference value: 29%); format: functional; conditions: read-out: TGI
# [27] = Inhibition of P-gp in human MCF7/DX1 cells assessed as […] Rh123 accumulation after 30 to 40 mins by FACS analysis; format: cell-based
# [28] = Inhibition of P-gp in human MCF7/DX1 cells assessed as [3H]daunomycin accumulation after 40 mins by liquid scintillation counting method; format: cell-based
# [29] = Inhibition of P-gp in human MCF7/DX1 cells assessed as doxorubicin accumulation after 30 to 40 mins by FACS analysis; format: cell-based
# [30] = Inhibition of P-gp in human MCF7/DX1 cells assessed as BODIPY-FL-verapamil accumulation after 30 to 40 mins by FACS analysis; format: cell-based
# [31] = Inhibition of [125I]IAAP labeling to human P-gp expressed in baculovirus infected insect cell membranes after 10 mins
# [32] = tested on: Rattus norvegicus; experiment: AUC (0 to 72 hrs) in rat at 50 mg/kg, po by LC-MS/MS method; format: ADME, organism-based; parameters: time < 72 hr, dose 50 mg/kg, route oral; conditions: in vivo
# [33] = Cmax in rat at 50 mg/kg, po by LC-MS/MS method; format: ADME, organism-based; parameters: dose 50 mg/kg, route oral; conditions: in vivo
# [34] = species: Homo sapiens; experiment: Inhibition of P-gp in human MCF7/DOX cells assessed as potentiation of doxorubicin-induced cytotoxicity by measuring fold reduction in doxorubicin IC50 at 5 uM; format: cell-based
# [35] = species: Homo sapiens; experiment: Inhibition of P-gp in human MCF7/DOX cells assessed as potentiation of doxorubicin-induced cytotoxicity by measuring fold reduction in doxorubicin IC50 at 2.5 uM; format: cell-based
# [36] = Tmax in rat at 50 mg/kg, po by LC-MS/MS method; format: ADME, organism-based; conditions: in vivo
# [37] = Half life in rat at 50 mg/kg, po by LC-MS/MS method; format: ADME, organism-based; conditions: in vivo
# [38] = Half life in patient with advanced stage of cancer at 500 mg/m2 by HPLC method; format: ADME, organism-based; conditions: human, in vivo
# [39] = tested on: NCI/ADR-RES; experiment: Potentiation of doxorubicin-induced antitumor activity against human MCF7/ADR cells xenografted in nude mouse assessed as tumor growth inhibition at 30 mg/kg, ip every two days (reference value: -20%); format: functional; conditions: 48 h, read-out: TGI
# [40] = Potentiation of vincristine-induced antitumor activity against human KBv200 cells xenografted in Balb/c nude mouse assessed as tumor growth inhibition at 30 mg/kg, ip every two days (reference value: 20%); format: functional; conditions: 48 h, read-out: TGI
# [41] = Potentiation of paclitaxel-induced antitumor activity against human KBv200 cells in xenograft model assessed as tumor growth inhibition at 35 mg/kg, ip (reference value: 13%); format: functional; conditions: read-out: TGI
# [42] = Cytotoxicity against human KB1 cells; format: functional; conditions: read-out: ED50 (the source's name)
# [43] = species: Homo sapiens; experiment: Inhibition of P-gp in human Caco2 cells assessed as reduction in digoxin efflux at 4 uM relative to control; format: cell-based
# [44] = biological target: MRP2 (ABCC2) (Homo sapiens, UniProt Q92887); experiment: Inhibition of MRP2 in human Caco2 cells assessed as reduction in pravastatin sodium efflux at 4 uM relative to control; format: cell-based; conditions: Caco-2 cells, probe pravastatin sodium
# Chain of MRP2 (ABCC2) (Q92887 whole entry): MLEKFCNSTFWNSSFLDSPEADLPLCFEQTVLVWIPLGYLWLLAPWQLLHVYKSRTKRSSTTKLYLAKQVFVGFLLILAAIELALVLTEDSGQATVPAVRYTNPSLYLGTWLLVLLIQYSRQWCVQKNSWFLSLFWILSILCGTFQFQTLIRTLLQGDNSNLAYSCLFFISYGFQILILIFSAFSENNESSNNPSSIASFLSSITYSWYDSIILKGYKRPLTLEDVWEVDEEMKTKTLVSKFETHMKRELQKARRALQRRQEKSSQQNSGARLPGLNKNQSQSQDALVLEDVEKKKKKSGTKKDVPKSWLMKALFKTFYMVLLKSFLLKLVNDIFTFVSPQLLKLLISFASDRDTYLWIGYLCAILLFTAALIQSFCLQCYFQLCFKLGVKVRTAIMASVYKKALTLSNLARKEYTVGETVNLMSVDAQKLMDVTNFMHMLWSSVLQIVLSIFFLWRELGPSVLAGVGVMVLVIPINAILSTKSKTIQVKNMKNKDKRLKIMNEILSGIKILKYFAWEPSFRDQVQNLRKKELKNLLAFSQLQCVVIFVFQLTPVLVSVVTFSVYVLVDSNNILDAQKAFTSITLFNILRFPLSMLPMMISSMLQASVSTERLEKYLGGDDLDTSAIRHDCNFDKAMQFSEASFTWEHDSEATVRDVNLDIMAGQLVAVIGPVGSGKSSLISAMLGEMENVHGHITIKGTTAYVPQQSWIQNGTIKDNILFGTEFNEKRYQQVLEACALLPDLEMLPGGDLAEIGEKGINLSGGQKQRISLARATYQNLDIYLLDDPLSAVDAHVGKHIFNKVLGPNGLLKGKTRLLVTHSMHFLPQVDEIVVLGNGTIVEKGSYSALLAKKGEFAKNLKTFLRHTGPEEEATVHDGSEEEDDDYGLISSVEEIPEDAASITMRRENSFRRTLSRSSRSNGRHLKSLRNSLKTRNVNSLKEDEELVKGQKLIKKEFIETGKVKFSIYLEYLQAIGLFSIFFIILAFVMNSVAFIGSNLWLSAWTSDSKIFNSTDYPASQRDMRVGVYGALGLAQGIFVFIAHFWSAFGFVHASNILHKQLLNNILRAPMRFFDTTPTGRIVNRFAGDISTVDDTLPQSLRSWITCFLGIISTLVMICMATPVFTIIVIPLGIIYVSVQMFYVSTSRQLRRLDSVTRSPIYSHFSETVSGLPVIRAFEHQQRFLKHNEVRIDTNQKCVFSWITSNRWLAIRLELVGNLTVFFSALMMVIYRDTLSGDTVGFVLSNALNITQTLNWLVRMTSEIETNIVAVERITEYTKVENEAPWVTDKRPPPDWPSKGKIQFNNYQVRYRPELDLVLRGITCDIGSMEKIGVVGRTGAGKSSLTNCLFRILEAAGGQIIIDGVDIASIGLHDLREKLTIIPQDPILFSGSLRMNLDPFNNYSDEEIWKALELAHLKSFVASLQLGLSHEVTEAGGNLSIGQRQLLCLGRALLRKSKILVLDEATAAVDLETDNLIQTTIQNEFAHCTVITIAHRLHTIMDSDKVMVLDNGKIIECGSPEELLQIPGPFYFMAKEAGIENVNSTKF
# T2 sequence (P08183 whole entry): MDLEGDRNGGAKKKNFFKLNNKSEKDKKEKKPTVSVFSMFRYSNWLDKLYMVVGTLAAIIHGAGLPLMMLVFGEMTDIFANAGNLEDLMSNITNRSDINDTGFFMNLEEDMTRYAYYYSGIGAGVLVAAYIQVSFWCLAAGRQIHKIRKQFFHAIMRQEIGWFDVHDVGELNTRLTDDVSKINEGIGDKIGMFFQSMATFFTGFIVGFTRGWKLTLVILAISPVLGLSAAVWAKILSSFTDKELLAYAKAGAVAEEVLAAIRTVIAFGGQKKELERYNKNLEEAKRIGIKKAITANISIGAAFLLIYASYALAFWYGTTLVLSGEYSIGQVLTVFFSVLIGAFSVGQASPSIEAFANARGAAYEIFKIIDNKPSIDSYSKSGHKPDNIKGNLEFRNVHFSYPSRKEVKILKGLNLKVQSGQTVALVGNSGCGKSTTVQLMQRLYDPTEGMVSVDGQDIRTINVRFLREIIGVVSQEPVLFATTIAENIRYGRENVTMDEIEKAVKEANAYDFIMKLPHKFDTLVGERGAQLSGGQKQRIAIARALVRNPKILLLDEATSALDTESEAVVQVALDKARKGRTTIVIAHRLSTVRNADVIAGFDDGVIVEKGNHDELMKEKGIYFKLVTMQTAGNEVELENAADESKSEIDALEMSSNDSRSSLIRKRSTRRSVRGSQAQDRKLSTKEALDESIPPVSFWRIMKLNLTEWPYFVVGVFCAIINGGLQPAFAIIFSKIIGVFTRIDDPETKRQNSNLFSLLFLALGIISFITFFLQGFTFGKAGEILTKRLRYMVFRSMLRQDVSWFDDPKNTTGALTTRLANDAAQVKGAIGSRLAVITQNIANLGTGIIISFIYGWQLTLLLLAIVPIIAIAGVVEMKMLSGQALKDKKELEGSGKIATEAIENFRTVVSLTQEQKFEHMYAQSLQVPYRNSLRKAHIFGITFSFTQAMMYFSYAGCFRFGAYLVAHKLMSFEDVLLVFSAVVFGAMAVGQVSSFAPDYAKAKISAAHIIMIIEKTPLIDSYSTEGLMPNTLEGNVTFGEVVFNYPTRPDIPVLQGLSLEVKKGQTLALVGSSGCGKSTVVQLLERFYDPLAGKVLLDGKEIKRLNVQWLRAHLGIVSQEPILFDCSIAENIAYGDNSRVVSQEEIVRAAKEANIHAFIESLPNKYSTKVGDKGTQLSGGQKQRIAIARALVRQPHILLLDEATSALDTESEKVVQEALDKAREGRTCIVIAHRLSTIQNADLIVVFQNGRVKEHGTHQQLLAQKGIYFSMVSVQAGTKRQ
compound,measurement,setting,value
COC(=O)[C@H]1[C@H]2C[C@@H]3c4[nH]c5cc(OC)ccc5c4CCN3C[C@H]2C[C@@H](OC(=O)c2cc(OC)c(OC)c(OC)c2)[C@@H]1OC [RESERPINE],IC50,[1],12600 nM
Nc1ncnc2c1ncn2[C@@H]1O[C@H](COC(=O)c2ccc(S(=O)(=O)F)cc2)[C@@H](O)[C@H]1O,IC50,[2],170 nM
same,IC50,[3],210 nM
same,IC50,[4],680 nM
COc1cc(/C=C/C(=O)OC2C(O)C3CC(OC(=O)c4cc(OC)c(OC)c(OC)c4)CC2N3C)cc(OC)c1OC (centres undefined),Ki,[5],7300 nM
same,inhibition in vivo at 130 µmol/kg,[6],≤ 75%
same,inhibition in vivo at 130 µmol/kg,[7],≤ 75%
same,inhibition in vivo at 136 µmol/kg,[8],≤ 77.7%
C=C[C@]1(C)C[C@@H](OC(=O)CSCCN(CC)CC)[C@]2(C)[C@H](C)CC[C@]3(CCC(=O)[C@H]32)[C@@H](C)[C@@H]1O [TIAMULIN],IC50,[9],540 nM
same,survival at 1.6 mg/kg,[10],29%
same,IC50,[11],6200 nM
CN[C@@H]1C[C@H]2O[C@@](C)([C@@H]1OC)n1c3ccccc3c3c4c(c5c6ccccc6n2c5c31)C(=O)NC4 [STAUROSPORINE],Activity,[12],50%
COc1ccc2cc1Oc1ccc(cc1)C[C@@H]1c3cc(c(OC)cc3CCN1C)Oc1c(OC)c(OC)c(Br)c3c1[C@H](C2)N(C)CC3,IC50,[13],2000 nM
same,AUC,[14],6116 µg/h/L
same,Cmax,[15],607 ng/mL
same,Tmax,[16],3.67 h
same,half-life,[17],8.67 h
same,AUC,[18],21827 µg/h/L
same,Cmax,[19],835 ng/mL
same,Tmax,[20],4.67 h
same,half-life,[21],18.2 h
same,AUC,[22],64 µg/h/L
same,half-life,[23],0.5 h
same,half-life,[24],52 h
same,inhibition in vivo at 10 mg/kg,[25],39%
same,inhibition in vivo at 10 mg/kg,[26],48%
COc1ccc2c3c1O[C@@H]1C[C@H](OC(=O)CCCCCCCCC(=O)O[C@H]4C=C[C@@]56CN(C)CCc7ccc(OC)c(c75)O[C@H]6C4)C=C[C@]31CN(C)CC2,IC50,[27],800 nM
same,IC50,[28],500 to 2000 nM
same,IC50,[29],500 to 2000 nM
same,IC50,[30],500 to 2000 nM
same,IC50,[31],500 nM
COc1ccc2cc1Oc1ccc(cc1)C[C@@H]1c3cc(c(OC)cc3CCN1C)Oc1c(OC)c(OC)cc3c1[C@H](C2)N(C)CC3 [ISOTETRANDRINE],AUC,[32],6279 µg/h/L
same,Cmax,[33],237 ng/mL
same,fold change (FC),[34],20
same,fold change (FC),[35],20
same,Tmax,[36],6 h
same,half-life,[37],20 h
same,half-life,[38],120 to 168 h
same,inhibition in vivo at 30 mg/kg,[39],58%
same,inhibition in vivo at 30 mg/kg,[40],62%
same,inhibition in vivo at 35 mg/kg,[41],76%
CC(/C=C/C=C\C=C\C=C(/C)C(=O)N[C@@H](C)CO)=C\[C@@H](C)[C@@H](O)/C(C)=C/[C@@H](C)CCc1ccccc1,EC50,[42],0.03 nM
O=C1c2ccccc2-n2c1nc1ccccc1c2=O [TRYPTANTHRIN],inhibition,[43],> 30%
same,inhibition at 4 µM,[44],> 30%
